Assay results as given in patent US7829524B2, “Antimicrobial peptides” (Novozymes Adenium Biotech A/S, priority 2003, dated 2010).
Like-named read-outs stand apart in the source and are kept apart here.

Test system: E. coli TOP10
Format: cell-based
Conditions: end point OD450, 14 hours
Method: A range of synthetic antimicrobial polypeptides were expressed in E. coli TOP10 (Invitrogen) using arabinose as inducer, as disclosed in Example 1 of International patent application WO 00/73433 (with minor modifications). […] Briefly, fresh overnight cultures grown in RM medium containing 0.2% glucose and ampicillin (100 μg/ml) were diluted 300-fold into 150 microliter of RM containing 0.2% glycerol and ampicillin (100 μg/ml) and different concentrations of arabinose (0, 0.01% or 0.1%) in a microtiter plate and incubated at 37 degrees Celsius with vigorous shaking. The growth curve was monitored by measuring OD450 using a Bioscreen C Microbiology reader (Thermo Electron Corporation) at intervals of 30 minutes for 14 hours (see Invitrogen protocol of the pBAD/gill A, B and C vectors catalogue nos. V450-01 for buffer and media composition). The percentage of growth inhibition was calculated as the end point OD measurement of each sample divided by the end point OD measurement obtained from cells containing the control vector and multiplied by 100. The formula is the following: [formula] where “blank OD” corresponds to the OD of an empty well.

Sequence: GLFKRLRKKIGKKLKKFGQKIKPLRKLVP (Synthetic antimicrobial peptide) [SEQ ID NO: 18]
- Growth inhibition using 0.1% arabinose (%) (Table 5): 94%

Sequence: GLFRRFGKKIGKKIIKKIGQKIKPIHKLVP (GLFRRFGKKIGKKLKKIGQKIKPIHKLVP; Synthetic antimicrobial peptide) [SEQ ID NO: 43]
- Growth inhibition using 0.1% arabinose (%) (Table 5): 76%

Sequence: GLFRRFGKKIGKKLKKIGQVIKALRILVP (Synthetic antimicrobial peptide) [SEQ ID NO: 39]
- Growth inhibition using 0.1% arabinose (%) (Table 5): 95%

Sequence: GLFRRFRRKIGKKLKKFGQKIKPLRKLVP (Synthetic antimicrobial peptide) [SEQ ID NO: 20]
- Growth inhibition using 0.1% arabinose (%) (Table 5): 97%

Sequence: GLFRRFWKKIGRKLKKIGQKIKPLQILVP (Synthetic antimicrobial peptide) [SEQ ID NO: 47]
- Growth inhibition using 0.1% arabinose (%) (Table 5): 79%

Sequence: GLFRRIRRKIGKKFKKFGQVIKPLRKLVP (Synthetic antimicrobial peptide) [SEQ ID NO: 52]
- Growth inhibition using 0.1% arabinose (%) (Table 5): 95%

Sequence: GLFRRLGKKIGKKIKKFGQVIKHIRILVP (GLFRRLGKKIGKKLKKFGQVIKHIRILVP; Synthetic antimicrobial peptide) [SEQ ID NO: 34]
- Growth inhibition using 0.1% arabinose (%) (Table 5): 92%

Sequence: GLFRRLGRKIGKKLKKIGQVIKHIRILVP (Synthetic antimicrobial peptide) [SEQ ID NO: 36]
- Growth inhibition using 0.1% arabinose (%) (Table 5): 95%

Sequence: GLFRRLKRKIGKKLKKIAR (Synthetic antimicrobial peptide) [SEQ ID NO: 65]
- Growth inhibition using 0.01% arabinose (%) (Table 6): 91%
- Growth inhibition using 0.1% arabinose (%) (Table 6): 99%

Sequence: GLFRRLKRKIGRKFKKIAR (Synthetic antimicrobial peptide) [SEQ ID NO: 60]
- Growth inhibition using 0.01% arabinose (%) (Table 6): 85%
- Growth inhibition using 0.1% arabinose (%) (Table 6): 99%

Sequence: GLFRRLRGKIGKKLKKIGQKIKAIRILVP (Synthetic antimicrobial peptide) [SEQ ID NO: 33]
- Growth inhibition using 0.1% arabinose (%) (Table 5): 91%

Sequence: GLFRRLRKKIGKKFKKIAR (Synthetic antimicrobial peptide) [SEQ ID NO: 69]
- Growth inhibition using 0.01% arabinose (%) (Table 6): 86%
- Growth inhibition using 0.1% arabinose (%) (Table 6): 99%

Sequence: GLFRRLRKKIGKKLKKIAR (Synthetic antimicrobial peptide) [SEQ ID NO: 64]
- Growth inhibition using 0.01% arabinose (%) (Table 6): 92%
- Growth inhibition using 0.1% arabinose (%) (Table 6): 99%

Sequence: GLFRRLRKKIGKKLKKIGQLIKAIRILVP (Synthetic antimicrobial peptide) [SEQ ID NO: 23]
- Growth inhibition using 0.1% arabinose (%) (Table 5): 97%

Sequence: GLFRRLRRKIGKKFKKFGQKIKPLRKLVP (Synthetic antimicrobial peptide) [SEQ ID NO: 46]
- Growth inhibition using 0.1% arabinose (%) (Table 5): 96%

Sequence: GLLKRFRGKIGKKLKKYGQLIKAIRILVP (Synthetic antimicrobial peptide) [SEQ ID NO: 22]
- Growth inhibition using 0.1% arabinose (%) (Table 5): 90%

Sequence: GLLKRLGRKIGKKFKKIAR (Synthetic antimicrobial peptide) [SEQ ID NO: 61]
- Growth inhibition using 0.01% arabinose (%) (Table 6): 89%
- Growth inhibition using 0.1% arabinose (%) (Table 6): 98%

Sequence: GLLKRLGRKIGKKLKKFGQKIKAIRKLVP (Synthetic antimicrobial peptide) [SEQ ID NO: 8]
- Growth inhibition using 0.01% arabinose (%) (Table 4): 97%
- Growth inhibition using 0.1% arabinose (%) (Table 4): 100%

Sequence: GLLKRLRKKIGKKLKKIGPKIKHIRKLVP (Synthetic antimicrobial peptide) [SEQ ID NO: 10]
- Growth inhibition using 0.01% arabinose (%) (Table 4): 93%
- Growth inhibition using 0.1% arabinose (%) (Table 4): 100%

Sequence: GLLKRLRKKIGKKLKKIGQKIKPIRKLVP (Synthetic antimicrobial peptide) [SEQ ID NO: 25]
- Growth inhibition using 0.1% arabinose (%) (Table 5): 94%

Sequence: GLLKRLRKKIGKKLKKIGQMIKHIRILVP (Synthetic antimicrobial peptide) [SEQ ID NO: 44]
- Growth inhibition using 0.1% arabinose (%) (Table 5): 93%

Sequence: GLLRRFGKKIGKKFKKYGQKIKNLRILVP (Synthetic antimicrobial peptide) [SEQ ID NO: 24]
- Growth inhibition using 0.1% arabinose (%) (Table 5): 92%

Sequence: GLLRRFGRKIGKKFKKFGPKIKHLRKLVP (Synthetic antimicrobial peptide) [SEQ ID NO: 26]
- Growth inhibition using 0.1% arabinose (%) (Table 5): 92%

Sequence: GLLRRFGRKIGKKFKKFGPKIKILRKLVP (GLLRRFGRKIGKKFKKFGPKIKHLRKLVP; Synthetic antimicrobial peptide) [SEQ ID NO: 19]
- Growth inhibition using 0.1% arabinose (%) (Table 5): 91%

Sequence: GLLRRFRBEIGKKLKKYGQKIKHLRKLVP (GLLRRFREKIGKKLKKYGQKIKHLRKLVP; Synthetic antimicrobial peptide) [SEQ ID NO: 45]
- Growth inhibition using 0.1% arabinose (%) (Table 5): 79%

Sequence: GLLRRFRKKIGEKFKKFGQKIKNIRILVP (Synthetic antimicrobial peptide) [SEQ ID NO: 55]
- Growth inhibition using 0.1% arabinose (%) (Table 5): 79%

Sequence: GLLRRFRKKIGGKLKKYGQIIKHLRILVP (Synthetic antimicrobial peptide) [SEQ ID NO: 5]
- Growth inhibition using 0.01% arabinose (%) (Table 4): 94%
- Growth inhibition using 0.1% arabinose (%) (Table 4): 100%

Sequence: GLLRRFRKKIGKKLKKITR (Synthetic antimicrobial peptide) [SEQ ID NO: 67]
- Growth inhibition using 0.01% arabinose (%) (Table 6): 90%
- Growth inhibition using 0.1% arabinose (%) (Table 6): 100%

Sequence: GLLRRFRKKIGKKLKKYGQKIKHLRILVP (Synthetic antimicrobial peptide) [SEQ ID NO: 57]
- Growth inhibition using 0.1% arabinose (%) (Table 5): 95%

Sequence: GLLRRFRNKIGKKLKKIGQKIKPIRKLVP (Synthetic antimicrobial peptide) [SEQ ID NO: 50]
- Growth inhibition using 0.1% arabinose (%) (Table 5): 92%

Sequence: GLLRRFRRKIGRKLKKYGLMIKPLRKLVP (Synthetic antimicrobial peptide) [SEQ ID NO: 21]
- Growth inhibition using 0.1% arabinose (%) (Table 5): 94%

Sequence: GLLRRFWMKIGGKLKKFGQMIKHLRKLVP (Synthetic antimicrobial peptide) [SEQ ID NO: 11]
- Growth inhibition using 0.01% arabinose (%) (Table 4): 92%
- Growth inhibition using 0.1% arabinose (%) (Table 4): 99%

Sequence: GLLRRIIGKKIGKKFKKCGQVIKAIRILVP (GLLRRLGKKIGKKFKKCGQVIKAIRILVP; Synthetic antimicrobial peptide) [SEQ ID NO: 54]
- Growth inhibition using 0.1% arabinose (%) (Table 5): 89%

Sequence: GLLRRLGKKIGKKFKKFGQVIKALRILVP (Synthetic antimicrobial peptide) [SEQ ID NO: 35]
- Growth inhibition using 0.1% arabinose (%) (Table 5): 95%

Sequence: GLLRRLGRKIGKKLKKIGQKIKAIRILVP (Synthetic antimicrobial peptide) [SEQ ID NO: 49]
- Growth inhibition using 0.1% arabinose (%) (Table 5): 96%

Sequence: GLLRRLRGKIGKKLKKIGQKIKAIRKLVP (Synthetic antimicrobial peptide) [SEQ ID NO: 4]
- Growth inhibition using 0.01% arabinose (%) (Table 4): 89%
- Growth inhibition using 0.1% arabinose (%) (Table 4): 100%

Sequence: GLLRRLRKKIEKKLKKYGPKIKALRKLVP (Synthetic antimicrobial peptide) [SEQ ID NO: 37]
- Growth inhibition using 0.1% arabinose (%) (Table 5): 94%

Sequence: GLLRRLRKKIGKKLKFFGQKIKHIRILVP (GLLRRLRKKIGKKLKKFGQKIKHIRILVP; Synthetic antimicrobial peptide) [SEQ ID NO: 7]
- Growth inhibition using 0.01% arabinose (%) (Table 4): 93%
- Growth inhibition using 0.1% arabinose (%) (Table 4): 100%

Sequence: GLLRRLRKKIGKKLKKIGQKIKPIRKLVP (Synthetic antimicrobial peptide) [SEQ ID NO: 56]
- Growth inhibition using 0.1% arabinose (%) (Table 5): 94%

Sequence: GLLRRLRKKIGKKLKKITR (Synthetic antimicrobial peptide) [SEQ ID NO: 63]
- Growth inhibition using 0.01% arabinose (%) (Table 6): 95%
- Growth inhibition using 0.1% arabinose (%) (Table 6): 99%

Sequence: GLLRRLRKKIGRKFKKIAR (Synthetic antimicrobial peptide) [SEQ ID NO: 68]
- Growth inhibition using 0.01% arabinose (%) (Table 6): 91%
- Growth inhibition using 0.1% arabinose (%) (Table 6): 100%

Sequence: GLLRRLRNKIRKKLKKFGQKIKAIRILVP (Synthetic antimicrobial peptide) [SEQ ID NO: 16]
- Growth inhibition using 0.01% arabinose (%) (Table 4): 96%
- Growth inhibition using 0.1% arabinose (%) (Table 4): 100%

Sequence: GLLRRLRRKIGGKLKKFGQKIKPLRKLVP (Synthetic antimicrobial peptide) [SEQ ID NO: 6]
- Growth inhibition using 0.01% arabinose (%) (Table 4): 92%
- Growth inhibition using 0.1% arabinose (%) (Table 4): 100%

Sequence: GLLRRLRRKIGKKFKKIGQVIKHLRKLVP (Synthetic antimicrobial peptide) [SEQ ID NO: 32]
- Growth inhibition using 0.1% arabinose (%) (Table 5): 97%

Sequence: GLLRRLRRKIGKKLKKFGQKIKHIRILVP (Synthetic antimicrobial peptide) [SEQ ID NO: 15]
- Growth inhibition using 0.01% arabinose (%) (Table 4): 96%
- Growth inhibition using 0.1% arabinose (%) (Table 4): 100%

Sequence: GLLRRLWKKIGRKFKKYGQVIKHIRKLVP (Synthetic antimicrobial peptide) [SEQ ID NO: 48]
- Growth inhibition using 0.1% arabinose (%) (Table 5): 97%

Sequence: GLVRRFRRKIGKKLKKIGQIIKAIRKLVP (Synthetic antimicrobial peptide) [SEQ ID NO: 31]
- Growth inhibition using 0.1% arabinose (%) (Table 5): 96%

Sequence: GRFKRFWKKIGRKFKKIGQMLKPIRILVP (Synthetic antimicrobial peptide) [SEQ ID NO: 9]
- Growth inhibition using 0.01% arabinose (%) (Table 4): 96%
- Growth inhibition using 0.1% arabinose (%) (Table 4): 100%

Sequence: GRFKRLRKKIGKKFKKIGQKIKDIRKLIVP (GRFKRLRKKIGKKFKKIGQKIKDIRKLVP; Synthetic antimicrobial peptide) [SEQ ID NO: 51]
- Growth inhibition using 0.1% arabinose (%) (Table 5): 97%

Sequence: GRFRRFRKKIGGKLKKIGQVIKDIRILVP (Synthetic antimicrobial peptide) [SEQ ID NO: 28]
- Growth inhibition using 0.1% arabinose (%) (Table 5): 95%

Sequence: GRFRRFRKKIGKKFKKFGQMIKALRILVP (Synthetic antimicrobial peptide) [SEQ ID NO: 29]
- Growth inhibition using 0.1% arabinose (%) (Table 5): 95%
